Measurements from patent US12527779B2, “Prostaglandin E2 (PGE2) EP4 receptor antagonists” (Domain Therapeutics, priority 2019, dated 2026).
Structures can show the parent of a compound that is named as a salt.

target: T1, human EP4 (hEP4) receptor (Homo sapiens, UniProt P35408); test: In vitro human EP4 functional antagonist activity using BRET biosensors (cAMP EPAC biosensor, TCS2510 stimulation); format: cell-based; conditions: antagonist activity vs EC60 TCS2510, hEP4 in HEK-293 T cells
T1 construct: expressed in transfected cells; host or cells: HEK-293 T cells, transient co-transfection with polyethylenimine
Method: Examples of the present invention were tested successively for their agonist and antagonist activities on human EP4 (hEP4) receptor transiently over-expressed in HEK-293 T cells. […] The assay used to measure compound activity is based on the BRET technology. The unimolecular cAMP biosensor used to detect intracellular cAMP levels following GPCR stimulation consists of the EPAC protein fused to N- and C-terminal of Luciferase and GFP respectively.
Cell Culture and Transfection: HEK-293 T cells are maintained in Dulbecco's Modified Eagle's Medium supplemented with 10% Foetal Calf Serum, 1% Penicillin/Streptomycin at 37° C./5% CO2. Cells are co-transfected using polyethylenimine (25 kDa linear) with two DNA plasmids encoding hEP4, EPAC fused to luciferase (BRET donor) and to GFP (BRET acceptor). After transfection, cells are cultured (40,000 cells per well) for 48 h at 37° C./5% CO2.
BRET assay: Receptor activity is detected by changes in BRET signal. On the day of the assay, cells are rinsed and incubated in assay buffer (1.8 mM CaCl2, 1 mM MgCl2, 2.7 mM KCl, 137 mM NaCl, 0.4 mM NaH2PO4, 5.5 mM D-Glucose, 11.9 mM NaHCO3, 25 mM Hepes). Then, plates are equilibrated 1 h at 22° C. before adding compounds. Compounds and luciferase substrate are added to the cells using an automated device (Freedom Evo®, Tecan) and BRET readings are collected on EnVision (PerkinElmer) with specific filters (410 nm BW 80 nm, 515 nm BW 30 nm). Agonist and antagonist activities of compounds are consecutively evaluated on the same cell plate. Agonist activity is first measured after 5 min incubation with compound alone on the cells. Then, cells are stimulated by an EC60 TCS2510 concentration and luminescence is recorded for additional 10 min. EC60 TCS2510 concentration is the concentration giving 60% of the maximal TCS2510 response. Agonist or antagonist activities are evaluated in comparison to basal signals evoked by assay buffer or EC60 TCS2510 alone, respectively.
For IC50 determination, a dose-response test is performed using 10 concentrations (ranging over 4.5 logs) of each compound. Dose-response curves are fitted using the sigmoidal dose-response (variable slope) analysis in GraphPad Prism software (GraphPad Software) and IC50 of antagonist activity is calculated. Dose-response experiments are performed in duplicate, in two independent experiments. IC50 values are categorized as following: A: IC50<0.1 μM; B: IC50<1 μM.

T1 sequence (P35408 whole entry): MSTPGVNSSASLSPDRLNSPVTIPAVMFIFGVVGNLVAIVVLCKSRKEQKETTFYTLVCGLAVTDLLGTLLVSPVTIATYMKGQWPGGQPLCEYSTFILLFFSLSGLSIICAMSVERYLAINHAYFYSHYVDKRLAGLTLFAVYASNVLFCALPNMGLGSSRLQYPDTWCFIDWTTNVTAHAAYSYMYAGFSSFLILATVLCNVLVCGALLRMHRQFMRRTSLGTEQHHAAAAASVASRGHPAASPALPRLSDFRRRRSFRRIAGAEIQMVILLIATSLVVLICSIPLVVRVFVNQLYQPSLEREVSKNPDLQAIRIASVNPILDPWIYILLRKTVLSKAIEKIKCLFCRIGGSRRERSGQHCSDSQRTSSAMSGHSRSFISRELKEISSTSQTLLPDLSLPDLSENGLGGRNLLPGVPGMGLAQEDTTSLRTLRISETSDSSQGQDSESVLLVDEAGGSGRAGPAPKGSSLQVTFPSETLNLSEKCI

Row | Structure (SMILES) | IC50 [nM]
1 | Cc1cccc(OCCN(C)C2(C(=O)NC3(c4ccc(C(=O)O)cc4)CC3)CCOCC2)c1 [Example 35, 4-[1-[[4-[2-(3-Methylphenoxy)ethyl-methyl-amino]tetrahydropyran-4-carbonyl]amino]cyclopropyl]benzoic acid, hydrochloride] | < 100
2 | Cc1ccccc1OCCN(C)C1(C(=O)NC2(c3ccc(C(=O)O)cc3)CC2)CCOCC1 [Example 36, 4-[1-[[4-[2-(2-Methylphenoxy)ethyl-methyl-amino]tetrahydropyran-4-carbonyl]amino]cyclopropyl]benzoic acid, hydrochloride] | < 100
3 | Cc1ccc(OCCN(C)C2(C(=O)NC3(c4ccc(C(=O)O)cc4)CC3)CCOCC2)cc1 [Example 37, 4-[1-[[4-[2-(4-Methylphenoxy)ethyl-methyl-amino]tetrahydropyran-4-carbonyl]amino]cyclopropyl]benzoic acid, hydrochloride] | < 1000
4 | COc1cccc(OCCN(C)C2(C(=O)NC3(c4ccc(C(=O)O)cc4)CC3)CCOCC2)c1 [Example 38, 4-[1-[[4-[2-(3-Methoxyphenoxy)ethyl-methyl-amino]tetrahydropyran-4-carbonyl]amino]cyclopropyl]benzoic acid, hydrochloride] | < 100
5 | COc1ccccc1OCCN(C)C1(C(=O)NC2(c3ccc(C(=O)O)cc3)CC2)CCOCC1 [Example 39, 4-[1-[[4-[2-(2-Methoxyphenoxy)ethyl-methyl-amino]tetrahydropyran-4-carbonyl]amino]cyclopropyl]benzoic acid, hydrochloride] | < 1000
6 | COc1ccc(OCCN(C)C2(C(=O)NC3(c4ccc(C(=O)O)cc4)CC3)CCOCC2)cc1 [Example 40, 4-[1-[[4-[2-(4-Methoxyphenoxy)ethyl-methyl-amino]tetrahydropyran-4-carbonyl]amino]cyclopropyl]benzoic acid, hydrochloride] | < 1000
7 | CN(CCOc1cccc(C(F)(F)F)c1)C1(C(=O)NC2(c3ccc(C(=O)O)cc3)CC2)CCOCC1 [Example 41, 4-[1-[[4-[2-(3-Trifluoromethylphenoxy)ethyl-methyl-amino]tetrahydropyran-4-carbonyl]amino]cyclopropyl]benzoic acid, hydrochloride] | < 100
8 | CN(CCOc1ccccc1C(F)(F)F)C1(C(=O)NC2(c3ccc(C(=O)O)cc3)CC2)CCOCC1 [Example 42, 4-[1-[[4-[2-(2-Trifluoromethylphenoxy)ethyl-methyl-amino]tetrahydropyran-4-carbonyl]amino]cyclopropyl]benzoic acid, hydrochloride] | < 1000
9 | CN(CCOc1cccc(OC(F)(F)F)c1)C1(C(=O)NC2(c3ccc(C(=O)O)cc3)CC2)CCOCC1 [Example 43, 4-[1-[[4-[2-(3-Trifluoromethoxyphenoxy)ethyl-methyl-amino]tetrahydropyran-4-carbonyl]amino]cyclopropyl]benzoic acid, hydrochloride] | < 100
10 | CN(CCOc1ccccc1OC(F)(F)F)C1(C(=O)NC2(c3ccc(C(=O)O)cc3)CC2)CCOCC1 [Example 44, 4-[1-[[4-[2-(2-Trifluoromethoxyphenoxy)ethyl-methyl-amino]tetrahydropyran-4-carbonyl]amino]cyclopropyl]benzoic acid, hydrochloride] | < 100
11 | CN(CCOc1ccc(OC(F)(F)F)cc1)C1(C(=O)NC2(c3ccc(C(=O)O)cc3)CC2)CCOCC1 [Example 45, 4-[1-[[4-[2-(4-Trifluoromethoxyphenoxy)ethyl-methyl-amino]tetrahydropyran-4-carbonyl]amino]cyclopropyl]benzoic acid, hydrochloride] | < 1000
12 | CN(CCOc1cccc(C#N)c1)C1(C(=O)NC2(c3ccc(C(=O)O)cc3)CC2)CCOCC1 [Example 46, 4-[1-[[4-[2-(3-Cyanophenoxy)ethyl-methyl-amino]tetrahydropyran-4-carbonyl]amino]cyclopropyl]benzoic acid, hydrochloride] | < 1000
13 | CN(CCOc1ccccc1)C1(C(=O)NC2(c3ccc(C(=O)O)c(F)c3)CC2)CCOCC1 [Example 49, 2-Fluoro-4-[1-[[4-[methyl(2-phenoxyethyl)amino]tetrahydropyran-4-carbonyl]amino]cyclopropyl]benzoic acid, hydrochloride] | < 1000
14 | CN(CCOc1ccccc1)C1(C(=O)NC2(c3ccc(C(=O)O)cc3F)CC2)CCOCC1 [Example 50, 3-Fluoro-4-[1-[[4-[methyl(2-phenoxyethyl)amino]tetrahydropyran-4-carbonyl]amino]cyclopropyl]benzoic acid, hydrochloride] | < 100
15 | CN(CCOc1ccccc1)C1(C(=O)NC2(c3ccc(C(=O)O)c(Cl)c3)CC2)CCOCC1 [Example 51, 2-Chloro-4-[1-[[4-[methyl(2-phenoxyethyl)amino]tetrahydropyran-4-carbonyl]amino]cyclopropyl]benzoic acid, hydrochloride] | < 1000
16 | CN(CCOc1ccccc1)C1(C(=O)NC2(c3ccc(C(=O)O)cc3Cl)CC2)CCOCC1 [Example 52, 3-Chloro-4-[1-[[4-[methyl(2-phenoxyethyl)amino]tetrahydropyran-4-carbonyl]amino]cyclopropyl]benzoic acid, hydrochloride] | < 100
17 | CN(CCOc1ccccc1)C1(C(=O)NC2(c3ccc(C(=O)O)nc3)CC2)CCOCC1 [Example 53, 5-[1-[[4-[Methyl(2-phenoxyethyl)amino]tetrahydropyran-4-carbonyl]amino]cyclopropyl]pyridine-2-carboxylic acid, hydrochloride] | < 1000
18 | CN(CCOc1ccccc1)C1(C(=O)NC2(c3ccc(C(=O)O)cn3)CC2)CCOCC1 [Example 54, 6-[1-[[4-[Methyl(2-phenoxyethyl)amino]tetrahydropyran-4-carbonyl]amino]cyclopropyl]pyridine-3-carboxylic acid, hydrochloride] | < 1000
19 | C[C@H](NC(=O)C1(NCCOc2ccccc2)CCCCC1)c1ccc(C(=O)O)cc1 [Example 55, 4-[(1S)-1-[[1-(2-Phenoxyethylamino)cyclohexanecarbonyl]amino]ethyl]benzoic acid, hydrochloride] | < 1000
20 | C[C@H](NC(=O)C1(NCCOc2cccc(Cl)c2)CCCCC1)c1ccc(C(=O)O)cc1 [Example 56, 4-[(1S)-1-[[1-[2-(3-Chlorophenoxy)ethylamino]cyclohexanecarbonyl]amino]ethyl]benzoic acid, hydrochloride] | < 100
21 | C[C@H](NC(=O)C1(N(C)CCOc2cccc(Cl)c2)CCCCC1)c1ccc(C(=O)O)cc1 [Example 57, 4-[(1S)-1-[[1-[2-(3-Chlorophenoxy)ethyl-methyl-amino]cyclohexanecarbonyl]amino]ethyl]benzoic acid, hydrochloride] | < 100
22 | Cc1cccc(OCCNC2(C(=O)N[C@@H](C)c3ccc(C(=O)O)cc3)CCCCC2)c1 [Example 58, 4-[(1S)-1-[[1-[2-(3-Methylphenoxy)ethylamino]cyclohexanecarbonyl]amino]ethyl]benzoic acid, hydrochloride] | < 100
23 | Cc1cccc(OCCN(C)C2(C(=O)N[C@@H](C)c3ccc(C(=O)O)cc3)CCCCC2)c1 [Example 59, 4-[(1S)-1-[[1-[Methyl-[2-(3-methylphenoxy)ethyl]amino]cyclohexanecarbonyl]amino]ethyl]benzoic acid, hydrochloride] | < 100
24 | COc1cccc(OCCN(C)C2(C(=O)N[C@@H](C)c3ccc(C(=O)O)cc3)CCCCC2)c1 [Example 60, 4-[(1S)-1-[[1-[2-(3-Methoxyphenoxy)ethyl-methyl-amino]cyclohexanecarbonyl]amino]ethyl]benzoic acid, hydrochloride] | < 100
25 | C[C@H](NC(=O)C1(NCCOc2ccccc2)CCCC1)c1ccc(C(=O)O)cc1 [Example 61, 4-[(1S)-1-[[1-(2-Phenoxyethylamino)cyclopentanecarbonyl]amino]ethyl]benzoic acid, hydrochloride] | < 100
26 | C[C@H](NC(=O)C1(N(C)CCOc2ccccc2)CCCC1)c1ccc(C(=O)O)cc1 [Example 62, 4-[(1S)-1-[[1-[Methyl(2-phenoxyethyl)amino]cyclopentanecarbonyl]amino]ethyl]benzoic acid, hydrochloride] | < 100
27 | C[C@H](NC(=O)C1(NCCOc2cccc(Cl)c2)CCCC1)c1ccc(C(=O)O)cc1 [Example 63, 4-[(1S)-1-[[1-[2-(3-Chlorophenoxy)ethylamino]cyclopentanecarbonyl]amino]ethyl]benzoic acid, hydrochloride] | < 100
